Tests used:
gastric secretion = conditions: in words, cited from earlier work
[1] = in words; cited from earlier work
histamine H2-receptors [2] = target: T1, histamine H2-receptors (Cavia porcellus, UniProt P47747); conditions: literature, in words; cited from earlier work
T1 construct: The spontaneously beating right atrium was dissected free from other tissues; from tissue; host or cells: isolated spontaneously beating right atrium of male Hartley guinea pigs

histamine H2-receptors [3] = target: T1, histamine H2-receptors; test: Histamine H2-receptor antagonism, isolated guinea pig right atria assay; assay type: cell-based; conditions: cumulative histamine 1×10^-7 to 3×10^-5 M
Protocol: Subsequent investigations by Hughes and Coret, Proc. Soc. […] Black et al., Agents and Actions, 3, 133 (1973) and Brimblecombe et al., Fed. […] The present comparative studies were carried out using a modification of the procedure reported by Reinhardt et al., Agents and Actions, 4, 217 (1974).
Male Hartley strain guinea pigs (350-450 gm.) were sacrificed by a blow on the head. The heart was excised and placed in a Petri dish of oxygenated (95% O2, 5% CO2) modified Krebs solution (g./liter: NaCl 6.6, KCl 0.35, MgSO4.7 H2 O 0.295, KH2 PO4 0.162, CaCl2 0.238, NaHCO3 2.1 and dextrose 2.09). The spontaneously beating right atrium was dissected free from other tissues and a silk thread (4-0) attached to each end. The atrium was suspended in a 20 ml. muscle chamber containing oxygenated modified Krebs solution maintained at 32° C. Atrial contractions were recorded isometrically by means of a Grass FT 0.03 force displacement transducer and recordings of contractile force and rate were made with a Beckman RP Dynograph.
A resting tension of 1 g. was applied to the atrium and it was allowed to equilibrate for 1 hour.
Concentration-response curve displacement factors were calculated as follows: [formula] The factor obtained for BL-5641 was then expressed as a ratio of the factor obtained for cimetidine. [formula]

H2 receptors = conditions: in words; cited from earlier work
[4] = clinical, in words; cited from earlier work

T1 sequence (P47747 whole entry): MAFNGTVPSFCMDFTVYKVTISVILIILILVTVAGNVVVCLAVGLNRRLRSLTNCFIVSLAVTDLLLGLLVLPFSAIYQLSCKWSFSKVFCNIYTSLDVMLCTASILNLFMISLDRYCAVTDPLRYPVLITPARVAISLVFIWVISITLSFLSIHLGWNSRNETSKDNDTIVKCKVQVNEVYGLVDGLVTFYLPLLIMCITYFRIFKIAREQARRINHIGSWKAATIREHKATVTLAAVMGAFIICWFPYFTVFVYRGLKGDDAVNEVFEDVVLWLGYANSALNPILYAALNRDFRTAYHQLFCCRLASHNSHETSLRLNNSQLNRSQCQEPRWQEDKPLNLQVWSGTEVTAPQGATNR

SMILES | inhibition of gastric secretion (gastric secretion; animals and man) | clinical effectiveness as H2 receptor antagonist (gastric secretion) | oral absorption [1] | effect on histamine H2-receptors / contractile rate of guinea pig right atria (histamine H2-receptors [2]) | concentration of maximal response (histamine-induced increase in atrial rate) (histamine H2-receptors [3]) [µM] | H2 antagonist potency/effectiveness (H2 receptors) | toxicity (agranulocytosis) [4] | oral activity in man [1]
CNC(=S)NCCCCc1cnc[nH]1 [Burimamide] | inhibits gastric secretion in animals and man | first clinically effective H2 receptor antagonist | oral absorption is poor | a competitive antagonist of these receptors |  |  |  | 
NCCc1c[nH]cn1 [Histamine] |  |  |  | concentration-related increases in the contractile rate | 30 |  |  | 
CNC(=S)NCCSCc1[nH]cnc1C [Metiamide] |  |  |  |  |  | more potent than burimamide | toxicity (agranulocytosis) | orally active in man

Source: US4157347A, “N-cyano isothioureas” (Bristol-Myers Company, priority 1978, dated 1979)
